Structures are written as SMILES. Entries after “also recorded” stand apart in the source; their conditions may differ.

In series [1] the test system is CFLP mice. Briefly: Sedative and muscle relaxant effects (overall assessment). The series is classed as in vivo. The following applies: in words.
For series [2], the system named is CFLP mice. Description: Maximum electroshock (anti-electroshock activity). Format: in vivo. The following applies: Mus musculus, po, 1 h, p.o., 1 hour before test; 100 Hz, 30 V, 0.2 sec.; read-out: Anti-electroshock activity ED50. The source says:
2. Maximum electroshock stimulus (100 Hz, 30 V, 0.2 sec.) was applied according to the method of Swinyard et al. (Swinyard E. A., Brown W. C., Goodman, L. S.: J. Pharmacol. 106, 319 (1952)). The animals showing no tonix extension on the hind limb upon stimulus were considered as protected.

Series [3] relates to CFLP mice. Briefly: Narcosis potentiating effect (sodium barbiturate). The series is classed as in vivo.
The nature of series [4]: Acute toxicity. The series is classed as in vivo, CFLP mice. The following applies: mouse, in vivo, po; death rate observed for one week; read-out: Acute toxicity (LD50).
Series [5] deals with CFLP mice. Description: Acute toxicity. The series is classed as in vivo. Conditions: in words.
A short description of series [6]: Rotarod test (muscle incoordination and ataxia). The series is classed as in vivo, CFLP mice. The following applies: mouse, in vivo, po, 1 hour before test; 12/min., 120 sec.; read-out: Rotarod test ED50. The protocol: (§1) a. Rotarod test: The test was carried out according to the method of Kinnard and Carr (Brit. J. Pharmacol. Exp. Ther. 121, 354 (1957)). […] The ED50 values were calculated from the percentage of the animals falling down within 120 sec.

Series [7] has as its system CFLP mice. Briefly: Rotarod test (muscle incoordination and ataxia). Format: in vivo. The following applies: ratio (1) of Table 2, p.o. The protocol: as §1
(In general: In the rotarod test animals must keep their balance on a rotating rod.)

Series [8] can be described thus: Traction test (muscle incoordination and ataxia). Also noted: species or system CFLP mice. Conditions: mouse, in vivo, po, 1 hour before test; read-out: Traction test ED50. Here is the method: b. Traction test: The test was carried out according to the method of Theobald et al. (Arch. int. Pharmacodyn. 148, 560 (1964)). The two anterior limbs of the test animals were placed onto a horizontal rod so as to let the animals clutch the rod. […] The ED50 values were calculated from the percentage of the animals showing negative response.

Series [9] has as its system CFLP mice. Description: Antimetrazole activity (protection from tonic extensor spasm). The series is classed as in vivo. The protocol: 1. The first series of examinations was carried out according to the method of Everett and Richards (Everett G. M., Richards R. K.: J. Pharm. Exp. Ther. 81, 402 (1944)). 125 mg./kg. of metrazole were administered subcutaneously to the test animals. 1 hour after the administration the animals protected from tonic extensor spasm and the surviving animals were counted.

In series [10] the test system is CFLP mice. Briefly: Disappearance of righting reflex. Format: in vivo. Conditions: Mus musculus, po.
The test system of series [11] is CFLP mice. Description: Antagonism of strychnine spasm. Format: in vivo. Here is the method: Tonic extensor spasm was produced by administering an intraperitoneal dosage of 2 mg./kg. of strychnine to the animals (Kerley T. L., Richards A. G., Begley, R. W., Abren, B. E. and Weaver, L. C: J. Pharmacol. Exp. Ther. 132, 360 (1961)). The animals showing no spasm were considered as protected.

Regarding `CN1C(=O)CN(C(N)=O)C(c2ccccc2)c2cc(Cl)ccc21` (racemic) [Compound "A", 1-methyl-4-carbamoyl-5-phenyl-7-chloro-1,3,4,5-tetrahydro-2H-1,4-benzodiazepine-2-one], the “sedative and muscle relaxant effects compared with Diazepam” value in series [1] was “provokes muscle relaxation and sedation only in higher dosages; also recorded: much lower”. Besides, the “relation of the effects to those of the reference substances” value in series [1] (vs Chlorodiazepoxide and Diazepam) is recorded as “more closely related to those of Chlorodiazepoxide than of Diazepam”. In addition, the “dosages provoking muscle incoordination, muscle relaxation, and narcosis potentiation in relation to the dosage provoking anticonvulsive effect” value in series [1] (vs reference substances Diazepam and Chlorodiazepoxide) is “clearly more advantageous than the reference substances”. The ED50 (usually the dose that gives a 50% effect, or the effect in half of the subjects) in series [2] came to 19.3 mg/kg; in [3] (Mus musculus, po, 1 hour before sodium barbiturate 100 mg./kg. i.p.), 8.8 mg/kg; in series [9] (Mus musculus, po, 1 h, p.o., 1 hour before test, metrazole 125 mg./kg. s.c., 95% confidence limit in next line, read-out: Antimetrazole activity ED50), 0.66 mg/kg; in series [10], 1400 mg/kg; in series [11] (Mus musculus, po, 1 h, read-out: Antistrychnine activity ED50), 26 mg/kg. Besides, in series [3] (ratio (3) of Table 2, p.o.), the “Narcosis potentiation ED50 : Antimetrazole ED50” value amounted to 13.3. Also, in series [4], the LD50 (as a rule, the dose at which mortality reaches 50%) at 168 h is 1680 mg/kg. For the same molecule, the “therapeutic index compared with Diazepam” value in series [5] was “more favourable”. In addition, the results for the TD50 at 1 h in series [6] and in series [8] were 6.7 mg/kg and 26.9 mg/kg, respectively. The “Rotarod ED50 : Antimetrazole ED50” value in series [7] came out at 10.2. The “tetrachor spasm inhibiting effect / anticonvulsive effect compared with Diazepam” value in series [9] (in words, vs Diazepam) was “practically identical to that of Diazepam”. In [9] (single intravenous dosage of 5 mg./kg., 7 hours after administration), the “animals protected against metrazole spasm” value is given as 50%. Also, the “Antistrychnine ED50 : Antimetrazole” value in series [11] (ratio (2) of Table 2, p.o.) stood at 39.4.

The values above are taken from patent US4045433A, “1,3,4,5-Tetrahydro-2H-1,4-benzodiazepin-2-ones” (priority 1974, dated 1977).
